Results as given in patent US20210317092A1 (BAYER PHARMA AKTIENGESELLSCHAFT, priority 2016, published 2021).
Read-outs that look alike come from different tables or passages of the source.

Molecular target: T1, human Bradykinin B1 receptor (Homo sapiens, UniProt P46663)
T1 construct: host or cells: CHO-K1
T1 sequence (P46663 1-353): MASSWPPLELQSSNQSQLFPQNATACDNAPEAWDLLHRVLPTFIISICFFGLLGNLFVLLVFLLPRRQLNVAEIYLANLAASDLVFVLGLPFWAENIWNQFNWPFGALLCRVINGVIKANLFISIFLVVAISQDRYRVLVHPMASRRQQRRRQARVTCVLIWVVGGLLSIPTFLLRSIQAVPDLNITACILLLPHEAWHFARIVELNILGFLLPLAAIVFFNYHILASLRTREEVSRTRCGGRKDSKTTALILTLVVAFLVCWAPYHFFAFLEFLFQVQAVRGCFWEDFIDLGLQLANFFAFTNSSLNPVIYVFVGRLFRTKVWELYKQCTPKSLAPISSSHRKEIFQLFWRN
Test: Calcium flux Assay (FLIPR) with recombinant CHO-K1 cells expressing human Bradykinin B1 receptor, in presence (hB1 IC50) or absence (hB1 free IC50) of 0.1% BSA
Format: cell-based
Protocol: The potency to inhibit the Bradykinin B1 receptor was determined for the compounds of this invention in a cell-based fluorescent calcium-mobilisation assay. The assay measures the ability of test compounds to inhibit Bradykinin B1 receptor agonist-induced increase of intracellular free Ca^2+ in the cell line expressing Bradykinin B1 receptor. […] The change of the intracellular Ca^2+ concentration is monitored with a fluorescent plate reader FLIPR TETRA® (Molecular Devices).
Calcium flux Assays (FLIPR) with cells expressing human Bradykinin B1 receptor (hB1)
CHO-K1 cell line expressing human Bradykinin B1 receptor was purchased from Euroscreen (Gosselies, Belgium, with reference name hB1-D1). The cells were grown in Nutrient Mixture Ham's F12 (Sigma) containing 10% Foetal bovine serum (Sigma) and 400 μg/mL G418 (Sigma), 5 μg/mL puromycim (Sigma). […]
Cells were seeded in a volume of 50 μL in medium without antibiotics and incubated overnight in a humidified atmosphere with 5% CO2 at 37° C. […] The calcium indicator loaded cells were incubated at 37° C. for 2 hrs. Extracellular dye was then removed and each well was filled with 45 μL of assay buffer. Cell plates were kept in dark until used. Compound examples were assayed at 8 concentrations in triplicate. Serial 10-fold dilutions in 100% DMSO were made at a 100-times higher concentration than the final concentration, and then diluted 1:10 in assay buffer. 5 μL of each diluted compound was added to the well of cell plates (yielding final concentration with 1% DMSO), and incubated for 30 min at 28° C. before the addition of Bradykinin B1 receptor agonist on the FLIPR instrument.
A peptide antagonist Lys-(Des-Arg-Leu)-Bradykinin (Bachem, Brackley) at 20 µM was used to determine the full inhibition as control.
Peak fluorescence was used to determine the response to agonist obtained at each concentration of compound examples by the following equation:
% Response=100*(RFU(compound)−RFU(control))/(RFU(DMSO)−RFU(control)) • RFU means relative fluorescence units. • Control means full inhibition by the peptide antagonist Lys-(Des-Arg-Leu)-Bradykinin at 20 µM.
The response values were plotted against the logarithm of the compound concentrations. The compound examples were tested in triplicates per plate and mean values were plotted in Excel XLfit to determine IC50 values, percentage of maximal inhibition and the Hill slopes.

[1] = in presence of 0.1% BSA, read-out: hB1 IC50
[2] = in absence of 0.1% BSA, read-out: hB1 free IC50

Row | Structure (SMILES) | IC50 [1] [nM] | IC50 [2] [nM]
1 | CCc1cccc(C2(C(=O)Nc3ccc(-c4ccc(OC)c(OC)c4)c(-c4nnn[nH]4)c3)CC2)c1 [Example 40, N-[3′,4′-dimethoxy-2-(1H-tetrazol-5-yl)biphenyl-4-yl]-1-(3-ethylphenyl) cyclopropane-carboxamide] | 31.4 | –
2 | COc1ccc(-c2ccc(NC(=O)C3(c4ccc(C)cc4)CC3)cc2-c2nnn[nH]2)cc1OC [Example 45, N-[3′,4′-dimethoxy-2-(1H-tetrazol-5-yl)biphenyl-4-yl]-1-(4-methylphenyl) cyclopropane-carboxamide] | 49.8 | –
3 | COc1ccc(-c2ccc(NC(=O)C3(Cc4ccccc4)CC3)cc2-c2nnn[nH]2)cc1OC [Example 53, 1-benzyl-N-[3′,4′-dimethoxy-2-(1H-tetrazol-5-yl)biphenyl-4-yl]cyclopropane carboxamide] | 514 | –
4 | COc1ccc(-c2ccc(NC(=O)C3(CC(C)C)CC3)cc2-c2nnn[nH]2)cc1OC [Example 55, N-[3′,4′-dimethoxy-2-(1H-tetrazol-5-yl)biphenyl-4-yl]-1-isobutyl-cyclopropane-carboxamide] | 2060 | –
5 | CCc1ccc(C2(C(=O)Nc3ccc(-c4ccc(OC)c(OC)c4)c(-c4nnn[nH]4)c3)CC2)cc1 [Example 57, N-[3′,4′-dimethoxy-2-(1H-tetrazol-5-yl)biphenyl-4-yl]-1-(4-ethylphenyl) cyclopropane-carboxamide] | 36.6 | –
6 | CCOc1ccc(-c2ccc(NC(=O)C(C)(C)c3cccc(Cl)c3)cc2-c2nnn[nH]2)cn1 [Example 67, 2-(3-chlorophenyl)-N-[4-(6-ethoxypyridin-3-yl)-3-(1H-tetrazol-5-yl)phenyl]-2-methyl-propanamide] | 394 | –
7 | CCOc1ccc(-c2ccc(NC(=O)C3(c4ccc(OC(F)(F)F)cc4)CC3)cc2-c2nnn[nH]2)cn1 [Example 74, N-[4-(6-ethoxypyridin-3-yl)-3-(1H-tetrazol-5-yl)phenyl]-1-[4-(trifluoromethoxy)phenyl] cyclopropane-carboxamide] | 18.7 | 7.76
8 | CCOc1ccc(-c2ccc(NC(=O)C3(c4ccc(Cl)cc4F)CC3)cc2-c2nnn[nH]2)cn1 [Example 75, 1-(4-chloro-2-fluorophenyl)-N-[4-(6-ethoxypyridin-3-yl)-3-(1H-tetrazol-5-yl)phenyl] cyclopropane-carboxamide] | 22.7 | 14.1
9 | CCOc1ccc(-c2ccc(NC(=O)C3(c4ccc(C)c(F)c4)CC3)cc2-c2nnn[nH]2)cn1 [Example 76, N-[4-(6-ethoxypyridin-3-yl)-3-(1H-tetrazol-5-yl)phenyl]-1-(3-fluoro-4-methylphenyl) cyclopropane-carboxamide] | 24 | 12
10 | CCOc1ccc(-c2ccc(NC(=O)C3(C)CC3)cc2-c2nnn[nH]2)cn1 [Example 88, N-[4-(6-ethoxypyridin-3-yl)-3-(1H-tetrazol-5-yl)phenyl]-1-methyl-cyclopropane-carboxamide] | 111 | –
11 | CCOc1ccc(-c2ccc(NC(=O)C3(CC(C)C)CC3)cc2-c2nnn[nH]2)cn1 [Example 89, N-[4-(6-ethoxypyridin-3-yl)-3-(1H-tetrazol-5-yl)phenyl]-1-isobuty-l cyclopropane-carboxamide] | 615 | 541
12 | CCOc1ccc(-c2ccc(NC(=O)C3(C(C)C)CC3)cc2-c2nnn[nH]2)cn1 [Example 90, N-[4-(6-ethoxypyridin-3-yl)-3-(1H-tetrazol-5-yl)phenyl]-1-isopropyl-cyclopropane-carboxamide] | 1560 | –

Second part, the molecule after the results:

Row | IC50 [1] [nM] | IC50 [2] [nM] | Structure (SMILES)
13 | 92 | – | CCCc1cccc(C2(C(=O)Nc3ccc(-c4ccc(OC)c(OC)c4)c(-c4nnn[nH]4)c3)CC2)c1 [Example 41, N-[3′,4′-dimethoxy-2-(1H-tetrazol-5-yl)biphenyl-4-yl]-1-(3-propylpheny) cyclopropane-carboxamide]
14 | 746 | – | COc1ccc(-c2ccc(NC(=O)C3(c4cccc(C(C)(C)C)c4)CC3)cc2-c2nnn[nH]2)cc1OC [Example 42, 1-(3-tert-butylphenyl)-N-[3′,4′-dimethoxy-2-(1H-tetrazol-5-yl)biphenyl-4-yl]cyclopropane carboxamide]
15 | 14 | – | COc1ccc(-c2ccc(NC(=O)C3(c4ccc(Cl)cc4)CC3)cc2-c2nnn[nH]2)cc1OC [Example 43, 1-(4-chlorophenyl)-N-[3′,4′-dimethoxy-2-(1H-tetrazol-5-yl)biphenyl-4-yl]cyclopropane carboxamide]
16 | 141 | – | COc1ccc(-c2ccc(NC(=O)C3(c4ccc(C(C)(C)C)cc4)CC3)cc2-c2nnn[nH]2)cc1OC [Example 46, 1-(4-tert-butylphenyl)-N-[3′,4′-dimethoxy-2-(1H-tetrazol-5-yl)biphenyl-4-yl]cyclopropane carboxamide]
17 | 180 | – | COc1ccc(C2(C(=O)Nc3ccc(-c4ccc(OC)c(OC)c4)c(-c4nnn[nH]4)c3)CC2)cc1 [Example 47, N-[3′,4′-dimethoxy-2-(1H-tetrazol-5-yl)biphenyl-4-yl]-1-(4-methoxyphenyl) cyclopropane-carboxamide]
18 | 213 | – | COc1ccc(-c2ccc(NC(=O)C3(c4cccc(F)c4Cl)CC3)cc2-c2nnn[nH]2)cc1OC [Example 49, 1-(2-chloro-3-fluorophenyl)-N-[3′,4′-dimethoxy-2-(1H-tetrazol-5-yl)biphenyl-4-yl]cyclopropane carboxamide]
19 | 310 | – | COc1ccc(-c2ccc(NC(=O)C3(c4cccc(Cl)n4)CC3)cc2-c2nnn[nH]2)cc1OC [Example 50, 1-(6-chloropyridin-2-yl)-N-[3′,4′-dimethoxy-2-(1H-tetrazol-5-yl)biphenyl-4-yl]cyclopropane carboxamide]
20 | 342 | – | COc1ccc(-c2ccc(NC(=O)C3(c4ccc(Cl)nc4)CC3)cc2-c2nnn[nH]2)cc1OC [Example 51, 1-(6-Chloropyridin-3-yl)-N-[3′,4′-dimethoxy-2-(1H-tetrazol-5-yl)biphenyl-4-yl]cyclopropane carboxamide]
21 | 544 | – | COc1ccc(-c2ccc(NC(=O)C3(CC4CCCCC4)CC3)cc2-c2nnn[nH]2)cc1OC [Example 54, 1-(cyclohexyl-methyl)-N-[3′,4′-dimethoxy-2-(1H-tetrazol-5-yl)biphenyl-4-yl]cyclopropane carboxamide]
22 | 2050 | – | COc1ccc(-c2ccc(NC(=O)C(C)(C)c3cccc(Cl)c3)cc2-c2nnn[nH]2)cc1OC [Example 61, 2-(3-chlorophenyl)-N-[3′,4′-dimethoxy-2-(1H-tetrazol-5-yl)biphenyl-4-yl]-2-methyl-propanamide]
23 | 2430 | – | COc1ccc(-c2ccc(NC(=O)C3(c4cccc(Cl)c4)CCC3)cc2-c2nnn[nH]2)cc1OC [Example 62, 1-(3-chlorophenyl)-N-[3′,4′-dimethoxy-2-(1H-tetrazol-5-yl)biphenyl-4-yl]cyclobutane-carboxamide]
24 | 1410 | – | CCOc1ccc(-c2ccc(NC(=O)C3(c4cccc(Cl)c4)CCC3)cc2-c2nnn[nH]2)cn1 [Example 68, 1-(3-chlorophenyl)-N-[4-(6-ethoxypyridin-3-yl)-3-(1H-tetrazol-5-yl)phenyl] cyclobutane-carboxamide]
25 | 41.8 | 19 | CCOc1ccc(-c2ccc(NC(=O)C3(c4cc(F)cc(F)c4)CC3)cc2-c2nnn[nH]2)cn1 [Example 84, 1-(3,5-difluorophenyl)-N-[4-(6-ethoxypyridin-3-yl)-3-(1H-tetrazol-5-yl)phenyl] cyclopropane-carboxamide]
26 | 63.1 | – | CCOc1ccc(-c2ccc(NC(=O)C3(c4ccc(Cl)cn4)CC3)cc2-c2nnn[nH]2)cn1 [Example 85, 1-(5-chloropyridin-2-yl)-N-[4-(6-ethoxypyridin-3-yl)-3-(1H-tetrazol-5-yl)phenyl] cyclopropane-carboxamide]
27 | 88 | 60 | CCOc1ccc(-c2ccc(NC(=O)C3(c4ccc(F)c(OC)c4)CC3)cc2-c2nnn[nH]2)cn1 [Example 87, N-[4-(6-ethoxypyridin-3-yl)-3-(1H-tetrazol-5-yl)phenyl]-1-(4-fluoro-3-methoxyphenyl) cyclopropane-carboxamide]
